Holding throughout (assay type): functional
The subject of assay [1] is Ovis aries. Put plainly: Antiparasitic activity against Trichostrongylus colubriformis at dose of 0.04 mg/kg in sheep anthelmintic test.
Assay [2] concerns Ovis aries. Nature of the assay: Antiparasitic activity against Ostertagia circumcincta at dose of 0.04 mg/kg in sheep anthelmintic test.
In assay [3] the test system is Ovis aries. Put plainly: Antiparasitic activity against Cooperia […] at dose of 0.04 mg/kg in sheep anthelmintic test.
Assay [4] has as its system Ovis aries. Nature of the assay: Antiparasitic activity against Trichostrongylus axei at dose of 0.04 mg/kg in sheep anthelmintic test.
Another assay concerns Artemia. Nature of the assay: In vitro antiparasitic activity in brine shrimp assay.
The test system of assay [5] is Ovis aries. Nature of the assay: Antiparasitic activity against Haemonchus contortus at dose of 0.04 mg/kg in sheep anthelmintic test.
The subject of assay [6] is Ovis aries. Nature of the assay: Antiparasitic activity against Oesophagostomum columbianum at dose of 0.04 mg/kg in sheep anthelmintic test.
The test system of a further assay is Cooperia oncophora. Put plainly: Antiparasitic activity against Cooperia oncophora at dose of 0.10 mg/kg in sheep anthelmintic test.
In a further assay the test system is Haemonchus contortus. Nature of the assay: Antiparasitic activity against Haemonchus contortus at dose of 0.10 mg/kg in sheep anthelmintic test.
In the next assay the test system is Cooperia. Nature of the assay: Antiparasitic activity against Cooperia […] at dose of 0.10 mg/kg in sheep anthelmintic test. As to conditions: dose 0.1 mg/kg.
Assay [7] deals with Oesophagostomum columbianum. Put plainly: Antiparasitic activity against Oesophagostomum columbianum at dose of 0.10 mg/kg in sheep anthelmintic test.
In assay [8] the test system is Trichostrongylus colubriformis. Put plainly: Antiparasitic activity against Trichostrongylus colubriformis at dose of 0.10 mg/kg in sheep anthelmintic test.
In a further assay the test system is Trichostrongylus axei. Put plainly: Antiparasitic activity against Trichostrongylus axei at dose of 0.10 mg/kg in sheep anthelmintic test.
Assay [9] deals with Teladorsagia circumcincta. Put plainly: Antiparasitic activity against Ostertagia circumcincta at dose of 0.10 mg/kg in sheep anthelmintic test.
For assay [10], the system named is Ovis aries. Put plainly: Antiparasitic activity against Cooperia oncophora at dose of 0.05 mg/kg in sheep anthelmintic test.
In assay [11] the test system is Ovis aries. Nature of the assay: Antiparasitic activity against Trichostrongylus axei at dose of 0.05 mg/kg in sheep anthelmintic test.
Assay [12] has as its system Ovis aries. Nature of the assay: Antiparasitic activity against Ostertagia circumcincta at dose of 0.05 mg/kg in sheep anthelmintic test.
Assay [13] has as its system Ovis aries. Nature of the assay: Antiparasitic activity against Oesophagostomum columbianum at dose of 0.05 mg/kg in sheep anthelmintic test.
Assay [14] relates to Ovis aries. Nature of the assay: Antiparasitic activity against Cooperia […] at dose of 0.05 mg/kg in sheep anthelmintic test.
In assay [15] the test system is Ovis aries. Nature of the assay: Antiparasitic activity against Haemonchus contortus at dose of 0.05 mg/kg in sheep anthelmintic test.
For assay [16], the system named is Ovis aries. Nature of the assay: Antiparasitic activity against Trichostrongylus colubriformis at dose of 0.05 mg/kg in sheep anthelmintic test.
The subject of assay [17] is Ovis aries. Nature of the assay: Antiparasitic activity against Oesophagostomum columbianum at dose of 0.08 mg/kg in sheep anthelmintic test.
Assay [18] has as its system Ovis aries. Nature of the assay: Antiparasitic activity against Haemonchus contortus at dose of 0.08 mg/kg in sheep anthelmintic test.
The test system of assay [19] is Ovis aries. Nature of the assay: Antiparasitic activity against Cooperia […] at dose of 0.08 mg/kg in sheep anthelmintic test.
Assay [20] concerns Ovis aries. Put plainly: Antiparasitic activity against Trichostrongylus axei at dose of 0.08 mg/kg in sheep anthelmintic test.
The subject of assay [21] is Ovis aries. Nature of the assay: Antiparasitic activity against Trichostrongylus colubriformis at dose of 0.08 mg/kg in sheep anthelmintic test.
Assay [22] relates to Ovis aries. Nature of the assay: Antiparasitic activity against Ostertagia circumcincta at dose of 0.08 mg/kg in sheep anthelmintic test.
Assay [23] deals with Ovis aries. Nature of the assay: Antiparasitic activity against Haemonchus contortus at dose of 0.20 mg/kg in sheep anthelmintic test. The conditions noted are these: dose 0.2 mg/kg.
Assay [24] concerns Ovis aries. Nature of the assay: Antiparasitic activity against Cooperia oncophora at dose of 0.20 mg/kg in sheep anthelmintic test. As to conditions: dose 0.2 mg/kg.
In assay [25] the test system is Ovis aries. Put plainly: Antiparasitic activity against Ostertagia circumcincta at dose of 0.20 mg/kg in sheep anthelmintic test. As to conditions: dose 0.2 mg/kg.
Assay [26] has as its system Ovis aries. Put plainly: Antiparasitic activity against Trichostrongylus axei at dose of 0.20 mg/kg in sheep anthelmintic test. As to conditions: dose 0.2 mg/kg.
Assay [27] concerns Ovis aries. Nature of the assay: Antiparasitic activity against Trichostrongylus colubriformis at dose of 0.20 mg/kg in sheep anthelmintic test. The conditions noted are these: dose 0.2 mg/kg.
Assay [28] has as its system Ovis aries. Put plainly: Antiparasitic activity against Oesophagostomum columbianum at dose of 0.20 mg/kg in sheep anthelmintic test. The conditions noted are these: dose 0.2 mg/kg.
For assay [29], the system named is Ovis aries. Put plainly: Antiparasitic activity against Cooperia […] at dose of 0.20 mg/kg in sheep anthelmintic test. The conditions noted are these: dose 0.2 mg/kg.

Some results are limits rather than exact numbers.

On to `CCC(C)[C@H]1O[C@]2(C=C[C@@H]1C)C[C@@H]1C[C@@H](C/C=C(\C)[C@@H](O[C@H]3C[C@H](OC)[C@@H](O[C@H]4C[C@H](OC)[C@H](N(C)C)[C@H](C)O4)[C@H](C)O3)[C@@H](C)/C=C/C=C3\CO[C@@H]4[C@H](O)C(C)=C[C@@H](C(=O)O1)[C@]34O)O2` (some centres not stated), for which the Reduction is given as 51% with Ovis aries [1]; >95% in the assay with Ovis aries [2]; 51% with Ovis aries [3]; <50% with Ovis aries [4]; >95% with Ovis aries [5]; >95% in the assay with Ovis aries [6]. Besides, the IC100 in the assay with Artemia was determined as 1300 ng/mL.
For `CCC(C)[C@H]1O[C@]2(CC(O)[C@@H]1C)C[C@@H]1C[C@@H](C/C=C(\C)[C@@H](O[C@H]3C[C@H](OC)[C@@H](O[C@H]4C[C@H](OC)[C@H](NC(C)=O)[C@H](C)O4)[C@H](C)O3)[C@@H](C)/C=C/C=C3\CO[C@@H]4[C@H](O)C(C)=C[C@@H](C(=O)O1)[C@]34O)O2` (some centres not stated), the Reduction in the assay on Cooperia oncophora (dose 0.1 mg/kg) was >95%; in the assay on Haemonchus contortus (dose 0.1 mg/kg), <50%; in the assay with Cooperia it was 76%; in assay [7] (dose 0.1 mg/kg) it was >95%; in [8] (dose 0.1 mg/kg), >95%; in the assay on Trichostrongylus axei (dose 0.1 mg/kg), >95%. Moreover, in [9] (dose 0.1 mg/kg), the Reduction was >95%. The same molecule came in with an IC100 in the assay with Artemia of 870 ng/mL.
Regarding `CCC(C)[C@H]1O[C@]2(C=C[C@@H]1C)C[C@@H]1C[C@@H](C/C=C(\C)[C@@H](O[C@H]3C[C@H](OC)[C@@H](O[C@H]4C[C@H](OC)[C@H](/N=C/N(C)C)[C@H](C)O4)[C@H](C)O3)[C@@H](C)/C=C/C=C3\CO[C@@H]4[C@H](O)C(C)=C[C@@H](C(=O)O1)[C@]34O)O2` (some centres not stated), the Reduction in the assay on Cooperia oncophora (dose 0.1 mg/kg) is on record as <50%; with Haemonchus contortus (dose 0.1 mg/kg), >95%; in the assay with Cooperia it was 76%; in assay [7] (dose 0.1 mg/kg) it was >95%; in assay [8] (dose 0.1 mg/kg), <50%; with Trichostrongylus axei (dose 0.1 mg/kg), 51%. The Reduction in assay [9] (dose 0.1 mg/kg) is >95%. In the assay with Artemia, this molecule registered an IC100 of 870 ng/mL.
Take IVERMECTIN: the Reduction (in the assay with Cooperia oncophora; in the assay on Haemonchus contortus; in assay [7]; in assay [8]; in the assay on Trichostrongylus axei; in assay [9]) was > 95% each time. In addition, the IC100 with Artemia came out at 430 ng/mL.
As for `CCC(C)[C@H]1O[C@]2(C=C[C@@H]1C)C[C@@H]1C[C@@H](C/C=C(\C)[C@@H](O[C@H]3C[C@H](OC)[C@@H](O[C@H]4C[C@H](OC)[C@H](NC(=O)OC)[C@H](C)O4)[C@H](C)O3)[C@@H](C)/C=C/C=C3\CO[C@@H]4[C@H](O)C(C)=C[C@@H](C(=O)O1)[C@]34O)O2` (some centres not stated), the Reduction (with Cooperia oncophora (dose 0.1 mg/kg); in the assay with Haemonchus contortus (dose 0.1 mg/kg); in the assay on Cooperia; in assay [7] (dose 0.1 mg/kg); in assay [8] (dose 0.1 mg/kg); in the assay with Trichostrongylus axei (dose 0.1 mg/kg)) was >95% throughout. Moreover, in [9] (dose 0.1 mg/kg), the Reduction is recorded as >95%. Further, in the assay with Artemia, the IC100 was determined as 430 ng/mL.
Turning to `CCC(C)[C@H]1O[C@]2(C=C[C@@H]1C)C[C@@H]1C[C@@H](C/C=C(\C)[C@@H](O[C@H]3C[C@H](OC)[C@@H](O[C@H]4C[C@H](OC)[C@H](NC(C)C)[C@H](C)O4)[C@H](C)O3)[C@@H](C)/C=C/C=C3\CO[C@@H]4[C@H](O)C(C)=C[C@@H](C(=O)O1)[C@]34O)O2` (some centres not stated), the Reduction with Ovis aries [10] is listed as 51%; with Ovis aries [11] it was <50%; in the assay on Ovis aries [12], <50%; in the assay with Ovis aries [13], >95%; in the assay on Ovis aries [14] it was 51%; in the assay with Ovis aries [15] it was 76%. The Reduction in the assay with Ovis aries [16] is 51%. In addition, the IC100 with Artemia was 1730 ng/mL.
With `CCC(C)[C@H]1O[C@]2(C=C[C@@H]1C)C[C@@H]1C[C@@H](C/C=C(\C)[C@@H](O[C@H]3C[C@H](OC)[C@@H](O[C@H]4C[C@H](OC)/C(=N\NC(N)=O)[C@H](C)O4)[C@H](C)O3)[C@@H](C)/C=C/C=C3\CO[C@@H]4[C@H](O)C(C)=C[C@@H](C(=O)O1)[C@]34O)O2` (some centres not stated), the Reduction in the assay on Ovis aries [17] was >95%; with Ovis aries [18], >95%; with Ovis aries [19], <50%; with Ovis aries [20] it was >95%; in the assay on Ovis aries [21], >95%; in the assay with Ovis aries [22], >95%. In addition, the IC100 with Artemia came out at 650 ng/mL.
Take `CCC(C)[C@H]1O[C@]2(CC[C@@H]1C)C[C@@H]1C[C@@H](C/C=C(\C)[C@@H](O[C@H]3C[C@H](OC)[C@@H](O[C@H]4C[C@H](OC)[C@H](NC(C)=O)[C@H](C)O4)[C@H](C)O3)[C@@H](C)/C=C/C=C3\CO[C@@H]4[C@H](O)C(C)=C[C@@H](C(=O)O1)[C@]34O)O2` (some centres not stated): the Reduction (in the assay with Cooperia oncophora (dose 0.1 mg/kg); with Haemonchus contortus (dose 0.1 mg/kg); with Cooperia; in [7] (dose 0.1 mg/kg); in assay [8] (dose 0.1 mg/kg); in the assay on Trichostrongylus axei (dose 0.1 mg/kg)) was >95% each time. In addition, the Reduction in assay [9] (dose 0.1 mg/kg) is on record as >95%. Also, the IC100 in the assay on Artemia came to 650 ng/mL.
`CCC(C)[C@H]1O[C@]2(C=C[C@@H]1C)C[C@@H]1C[C@@H](C/C=C(\C)[C@@H](O[C@H]3C[C@H](OC)[C@@H](O[C@H]4C[C@H](OC)[C@H](NN(C)C)[C@H](C)O4)[C@H](C)O3)[C@@H](C)/C=C/C=C3\CO[C@@H]4[C@H](O)C(C)=C[C@@H](C(=O)O1)[C@]34O)O2` (some centres not stated): the Reduction (with Cooperia oncophora (dose 0.1 mg/kg); in the assay on Haemonchus contortus (dose 0.1 mg/kg); with Cooperia; in assay [7] (dose 0.1 mg/kg); in assay [8] (dose 0.1 mg/kg); in the assay with Trichostrongylus axei (dose 0.1 mg/kg)) was >95% in each case. Besides, the Reduction in [9] (dose 0.1 mg/kg) was >95%. For the same molecule, in the assay on Artemia, the IC100 was determined as 430 ng/mL.
For `CCC(C)[C@H]1O[C@]2(C=C[C@@H]1C)C[C@@H]1C[C@@H](C/C=C(\C)[C@@H](O[C@H]3C[C@H](OC)[C@@H](O[C@H]4C[C@H](OC)[C@H](NCc5ccccc5)[C@H](C)O4)[C@H](C)O3)[C@@H](C)/C=C/C=C3\CO[C@@H]4[C@H](O)C(C)=C[C@@H](C(=O)O1)[C@]34O)O2` (some centres not stated), the Reduction in the assay on Ovis aries [23] is on record as >95%; in the assay on Ovis aries [24], >95%; with Ovis aries [25], >95%; with Ovis aries [26], <50%; in the assay on Ovis aries [27], >95%; in the assay with Ovis aries [28], >95%. For the same molecule, the Reduction in the assay on Ovis aries [29] is >95%. Moreover, in the assay on Artemia, the IC100 is >55500 ng/mL.

The record behind these values is ChEMBL document CHEMBL1128617, “4-Deoxy-4-aminoavermectins with potent broad spectrum antiparasitic activities” (1995).
